Assay results published in patent US20100330177A1, “PHARMACEUTICAL COMPOSITIONS OF A COMBINATION OF METFORMIN AND A DIPEPTIDYL PEPTIDASE-IV INHIBITOR” (Merck Sharp & Dohme Corp., priority 2009, published 2010).
Where a name gives a salt, the structure may show the parent alone.

Experiments:
Type 2 diabetes = settings: oral administration, human Type 2 diabetics; cited from earlier work
[1] = in vitro dissolution profile of sitagliptin phosphate from the drug film layer; format: physicochemical; settings: FIG. 2
From the text: FIG. 2 is a graph showing in vitro dissolution profiles for sitagliptin phosphate from the drug film layer in a pharmaceutical composition of the present invention compared to sitagliptin phosphate in JANUMET™ which is a marketed fixed-dose combination of immediate-release metformin hydrochloride and immediate-release sitagliptin phosphate.

Compound | effect on fasting glucose, postprandial glucose excursion and HbA1c (Type 2 diabetes) | dissolution compared with sitagliptin phosphate in JANUMET ([1]; sitagliptin phosphate from the drug film layer vs marketed immediate-release fixed-dose combination) | time to complete dissolution ([1]; sitagliptin phosphate from the immediate-release drug film layer of the composition) [min]
Cn1c(=O)cc(N2CCC[C@@H](N)C2)n(Cc2ccccc2C#N)c1=O [alogliptin] | reduce fasting glucose and postprandial glucose excursion in association with significantly reduced HbA1c levels | – | –
N[C@@H](CC(=O)N1CCn2c(nnc2C(F)(F)F)C1)Cc1cc(F)c(F)cc1F [sitagliptin phosphate, dihydrogenphosphate salt of (2R)-4-oxo-4-[3-(trifluoromethyl)-5,6-dihydro[1,2,4]triazolo[4,3-a]pyrazin-7(8H)-yl]-1-(2,4,5-trifluorophenyl)butan-2-amine] | – | comparable to that of sitagliptin phosphate in JANUMET™ | ≤ 30
N[C@@H](CC(=O)N1CCn2c(nnc2C(F)(F)F)C1)Cc1cc(F)c(F)cc1F [sitagliptin, (2R)-4-oxo-4-[3-(trifluoromethyl)-5,6-dihydro[1,2,4]triazolo[4,3-a]pyrazin-7(8H)-yl]-1-(2,4,5-trifluorophenyl)butan-2-amine] | reduce fasting glucose and postprandial glucose excursion in association with significantly reduced HbA1c levels | – | –
N#C[C@@H]1CCCN1C(=O)CNC12CC3CC(CC(O)(C3)C1)C2 [vildagliptin] | reduce fasting glucose and postprandial glucose excursion in association with significantly reduced HbA1c levels | – | –
